Literature values in PubChem BioAssay AID1259409 (Chemical Carcinogenesis Research Information System (CCRIS), 2018).

Tested on: rodent chemically induced tumor inhibition, incidence and multiplicity
Assay: CCRIS tumor inhibitor studies

SMILES: CC(=O)N[C@@H](CS)C(=O)O
- tumour outcome (control, treated, inhibition, significance) (Carcinogen: 4-(METHYLNITROSAMINO)-1-(3-PYRIDYL)-1-BUTANONE [64091-50-5], Dose [Inhibitor]: 80 MMOL/KG IN DIET FOR 17 WK BEGINNING 1 WK PRIOR TO FIRST CARCINOGEN DOSE (STUDY DURATION: 17 WK), Route [Inhibitor]: ORAL, Species: MOUSE, Strain/Sex: A/J/FEMALE, Target Tissue: Type of Lesion: LUNG: ADENOMA, Dose [Carcinogen]: 10 UMOL ONCE 1 WK POST FIRST INHIBITOR DOSE (STUDY DURATION: 17 WK), Promoter: NONE): 100%, 100%, 0%, not significant
- tumour outcome (control, treated, inhibition, significance) (Carcinogen: 4-(METHYLNITROSAMINO)-1-(3-PYRIDYL)-1-BUTANONE [64091-50-5], Dose [Inhibitor]: 80 MMOL/KG IN DIET FOR 53 WK BEGINNING 1 WK PRIOR TO FIRST CARCINOGEN DOSE (STUDY DURATION: 53 WK), Route [Inhibitor]: ORAL, Species: MOUSE, Strain/Sex: A/J/FEMALE, Target Tissue: Type of Lesion: LUNG: ADENOMA OR ADENOCARCINOMA, Dose [Carcinogen]: 10 UMOL ONCE 1 WK POST FIRST INHIBITOR DOSE (STUDY DURATION: 53 WK), Promoter: NONE): 100%, 93%, 7%, not significant
- tumour outcome (control, treated, inhibition, significance) (Carcinogen: 4-(METHYLNITROSAMINO)-1-(3-PYRIDYL)-1-BUTANONE [64091-50-5], Dose [Inhibitor]: 160 MMOL/KG IN DIET FOR 17 WK BEGINNING 1 WK PRIOR TO FIRST CARCINOGEN DOSE (STUDY DURATION: 17 WK), Route [Inhibitor]: ORAL, Species: MOUSE, Strain/Sex: A/J/FEMALE, Target Tissue: Type of Lesion: LUNG: ADENOMA, Dose [Carcinogen]: 10 UMOL ONCE 1 WK POST FIRST INHIBITOR DOSE (STUDY DURATION: 17 WK), Promoter: NONE): 100%, 100%, 0%, not significant
- tumour outcome (control, treated, inhibition, significance) (Carcinogen: 4-(METHYLNITROSAMINO)-1-(3-PYRIDYL)-1-BUTANONE [64091-50-5], Dose [Inhibitor]: 160 MMOL/KG IN DIET FOR 53 WK BEGINNING 1 WK PRIOR TO FIRST CARCINOGEN DOSE (STUDY DURATION: 53 WK), Route [Inhibitor]: ORAL, Species: MOUSE, Strain/Sex: A/J/FEMALE, Target Tissue: Type of Lesion: LUNG: ADENOMA OR ADENOCARCINOMA, Dose [Carcinogen]: 10 UMOL ONCE 1 WK POST FIRST INHIBITOR DOSE (STUDY DURATION: 53 WK), Promoter: NONE): 100%, 97%, 3%, not significant
- tumour outcome (control, treated, inhibition, significance) (Carcinogen: 4-(METHYLNITROSAMINO)-1-(3-PYRIDYL)-1-BUTANONE, 64091-91-4, Dose [Inhibitor]: 0, 6528 PPM IN DIET FOR 22 WK BEGINNING 1 WK PRIOR TO CARCINOGEN TREATMENT (STUDY DURATION: 98 WK), Route [Inhibitor]: ORAL, Species: RAT, Strain/Sex: F344/MALE, Target Tissue: Type of Lesion: LUNG: TUMOR, Dose [Carcinogen]: 1.5 MG/KG BW 3/WK FOR 20 WK, Promoter: NONE USED): 22/33 (67%), 22/36 (61%), 9%, not significant
- tumour outcome (control, treated, inhibition, significance) (Carcinogen: 4-(METHYLNITROSAMINO)-1-(3-PYRIDYL)-1-BUTANONE, 64091-91-4, Dose [Inhibitor]: 0, 6528 PPM IN DIET FOR 22 WK BEGINNING 1 WK PRIOR TO CARCINOGEN TREATMENT (STUDY DURATION: 98 WK), Route [Inhibitor]: ORAL, Species: RAT, Strain/Sex: F344/MALE, Target Tissue: Type of Lesion: NASAL CAVITY: TUMOR, Dose [Carcinogen]: 1.5 MG/KG BW 3/WK FOR 20 WK, Promoter: NONE USED): 28/36 (78%), 22/36 (61%), 22%, not significant
- tumour outcome (control, treated, inhibition, significance) (Carcinogen: 4-(METHYLNITROSAMINO)-1-(3-PYRIDYL)-1-BUTANONE, 64091-91-4, Dose [Inhibitor]: 0, 13056 PPM IN DIET FOR 22 WK BEGINNING 1 WK PRIOR TO CARCINOGEN DOSE (STUDY DURATION: 98 WK), Route [Inhibitor]: ORAL, Species: RAT, Strain/Sex: F344/MALE, Target Tissue: Type of Lesion: NASAL CAVITY: TUMOR, Dose [Carcinogen]: 1.5 MG/KG BW 3/WK FOR 20 WK, Promoter: NONE USED): 28/36 (78%), 17/36 (47%), 40%, not significant
- tumour outcome (control, treated, inhibition, significance) (Carcinogen: 4-(METHYLNITROSAMINO)-1-(3-PYRIDYL)-1-BUTANONE, 64091-91-4, Dose [Inhibitor]: 0, 13056 PPM IN DIET FOR 22 WK BEGINNING 1 WK PRIOR TO CARCINOGEN TREATMENT (STUDY DURATION: 98 WK), Route [Inhibitor]: ORAL, Species: RAT, Strain/Sex: F344/MALE, Target Tissue: Type of Lesion: LUNG: TUMOR, Dose [Carcinogen]: 1.5 MG/KG BW 3/WK FOR 20 WK, Promoter: NONE USED): 22/33 (67%), 21/36 (58%), 13%, not significant
- tumour outcome (control, treated, inhibition, significance) (Carcinogen: 7,12-DIMETHYLBENZ[A]ANTHRACENE, 57-97-6, Dose [Inhibitor]: 0, 4000 PPM IN DIET FOR DURATION OF STUDY BEGINNING 1 WK PRIOR TO CARCINOGEN DOSE (STUDY DURATION: 107 D), Route [Inhibitor]: ORAL, Species: RAT, Strain/Sex: SPRAGUE-DAWLEY/FEMALE, Target Tissue: Type of Lesion: MAMMARY GLAND: ADENOCARCINOMA, Dose [Carcinogen]: 12 MG ONCE, Promoter: NONE USED): 92%, 88%, 4%, not significant
- tumour outcome (control, treated, inhibition, significance) (Carcinogen: 7,12-DIMETHYLBENZ[A]ANTHRACENE, 57-97-6, Dose [Inhibitor]: 0, 8000 PPM IN DIET FOR DURATION OF STUDY BEGINNING 1 WK PRIOR TO CARCINOGEN DOSE (STUDY DURATION: 107 D), Route [Inhibitor]: ORAL, Species: RAT, Strain/Sex: SPRAGUE-DAWLEY/FEMALE, Target Tissue: Type of Lesion: MAMMARY GLAND: ADENOCARCINOMA, Dose [Carcinogen]: 12 MG ONCE, Promoter: NONE USED): 92%, 92%, 0%, not significant
- tumour outcome (control, treated, inhibition, significance) (Carcinogen: AZOXYMETHANE, 25843-45-2, Dose [Inhibitor]: 0, 600 PPM IN DIET BEGINNING 2 WK PRIOR TO CARCINOGEN TREATMENT AND CONTINUING FOR DURATION OF STUDY (STUDY DURATION: 56, Route [Inhibitor]: ORAL, Species: RAT, Strain/Sex: F344/MALE, Target Tissue: Type of Lesion: COLON: INVASIVE ADENOCARCINOMA, Dose [Carcinogen]: 15 MG/KG 1/WK FOR 2 WK, Promoter: NONE USED): 34%, 22%, 35%, not significant
- tumour outcome (control, treated, inhibition, significance) (Carcinogen: AZOXYMETHANE, 25843-45-2, Dose [Inhibitor]: 0, 600 PPM IN DIET BEGINNING 2 WK PRIOR TO CARCINOGEN TREATMENT AND CONTINUING FOR DURATION OF STUDY (STUDY DURATION: 56, Route [Inhibitor]: ORAL, Species: RAT, Strain/Sex: F344/MALE, Target Tissue: Type of Lesion: COLON: NONINVASIVE ADENOCARCINOMA, Dose [Carcinogen]: 15 MG/KG 1/WK FOR 2 WK, Promoter: NONE USED): 53%, 44%, 17%, not significant
- tumour outcome (control, treated, inhibition, significance) (Carcinogen: AZOXYMETHANE, 25843-45-2, Dose [Inhibitor]: 0, 1200 PPM IN DIET BEGINNING 2 WK PRIOR TO CARCINOGEN TREATMENT AND CONTINUING FOR DURATION OF STUDY (STUDY DURATION: 5, Route [Inhibitor]: ORAL, Species: RAT, Strain/Sex: F344/MALE, Target Tissue: Type of Lesion: COLON: INVASIVE ADENOCARCINOMA, Dose [Carcinogen]: 15 MG/KG 1/WK FOR 2 WK, Promoter: NONE USED): 34%, 19%, 44%, not significant
- tumour outcome (control, treated, inhibition, significance) (Carcinogen: AZOXYMETHANE, 25843-45-2, Dose [Inhibitor]: 0, 1200 PPM IN DIET BEGINNING 2 WK PRIOR TO CARCINOGEN TREATMENT AND CONTINUING FOR DURATION OF STUDY (STUDY DURATION: 5, Route [Inhibitor]: ORAL, Species: RAT, Strain/Sex: F344/MALE, Target Tissue: Type of Lesion: COLON: NONINVASIVE ADENOCARCINOMA, Dose [Carcinogen]: 15 MG/KG 1/WK FOR 2 WK, Promoter: NONE USED): 53%, 42%, 21%, not significant
- tumour outcome (control, treated, inhibition, significance) (Carcinogen: DIETHYLNITROSAMINE, 55-18-5, Dose [Inhibitor]: 0, 30 MG/KG BW BY INTRAPERITONEAL INJECTION ON DAYS 13, 14 AND 15 OF AGE THEN 2 G/KG DIET FROM 21 TO 161 DAYS OF AGE (ST, Route [Inhibitor]: INTRAPERITONEAL, ORAL, Species: MOUSE, Strain/Sex: C3H/MALE, Target Tissue: Type of Lesion: LIVER: ADENOMA, Dose [Carcinogen]: 4 MG/KG IN TRICAPRYLIN ONCE ON DAY 15 OF AGE, Promoter: NONE USED): 100%, 100%, 0%, not significant

SMILES: O=c1cc(-c2ccc(O)c(O)c2)oc2cc(O)cc(O)c12
- tumour outcome (control, treated, inhibition, significance) (Carcinogen: 7,12-DIMETHYLBENZ[A]ANTHRACENE, 57-97-6, Dose [Inhibitor]: 0, 0.2 ML OF A 1% SOLUTION 1/D FOR 2 WK APPLIED 5 MIN POST EACH CARCINOGEN DOSE THEN 1/D FOR 4 WK DURING PROMOTION STAGE, Route [Inhibitor]: DERMAL, Species: MOUSE, Strain/Sex: SWISS/MALE, Target Tissue: Type of Lesion: SKIN: PAPILLOMA, Dose [Carcinogen]: 0.2 ML OF A 0.24% SOLUTION IN DMSO 1/D FOR 2 WK, Promoter: CROTON OIL, 8001-28-3): 23/23 (100%), 10/24 (42%), 58%, not calculated
- tumour outcome (control, treated, inhibition, significance) (Carcinogen: 7,12-DIMETHYLBENZ[A]ANTHRACENE, 57-97-6, Dose [Inhibitor]: 0, 0.2 ML OF A 1% SOLUTION 1/D FOR 2 WK APPLIED 5 MIN PRIOR TO EACH CARCINOGEN DOSE (STUDY DURATION: 20 WK), Route [Inhibitor]: DERMAL, Species: MOUSE, Strain/Sex: SWISS/MALE, Target Tissue: Type of Lesion: SKIN: PAPILLOMA, Dose [Carcinogen]: 0.2 ML OF A 0.24% SOLUTION IN DMSO 1/D FOR 2 WK, Promoter: CROTON OIL, 8001-28-3): 23/23 (100%), 20/23 (87%), 13%, not calculated
